Assay results from patent US20120197004A1, “NOVEL ANTI-MICROBIAL PEPTIDOMIMETIC COMPOUNDS AND METHODS TO CALCULATE ANTI-MICROBIAL ACTIVITY” (priority 2006, published 2012).
Values after ≈ are worked out from the molar mass of the structure shown. Like-named read-outs stand apart in the source and are kept apart here. *1 amine or outer side, *2 acyl side, *3 side chain or, on linkers, in order; H or OH if unused. Where a SMILES comes first, the peptide text is derived from it. [ ]: non-standard residue; d: D form. ξ: configuration not given here. Oic = O=C(O)[C@@H]1C[C@@H]2CCCC[C@@H]2N1; Ethylenediamine = C(CN[*:2])N[*:1]; Tic = O=C(O)[C@@H]1Cc2ccccc2CN1; ξTic = O=C(O)C1Cc2ccccc2CN1; ξOic = O=C(O)C1CC2CCCCC2N1; Ahx = NCCCCCC(=O)O; GABA = NCCCC(=O)O

Columns and labels:
[1] = test system: Mycobacterium ranae (ATCC 110)
[2] = test system: Salmonella typhimurium (ATCC 13311); settings: for p(MIC) Salmonella typhimurium: -log(MIC)
[3] = test system: Bacillus subtillis (ATCC 43223); settings: for p(MIC) Bacillus Subtillis: -log(MIC)
[4] = test system: Staphylococcus aureus Methicillin/Gentamicin/Tetracycline Resistant (ATCC 33592); settings: for MIC Staphylococcus aureus ME/GM/TC resistant: Minimal Inhibitory Concentration, tested at 100-0.1 in 1% DMSO; for Minimum Inhibitory Concentration Staphylococcus aureus ME/GM/TC resistant: in vitro MIC, tested at 100, 30, 10, 3, 1, 0.3 and 0.1 μM in 1% DMSO; for p(MIC) Staphylococcus aureus ME/GM/TC resistant: -log(MIC); for Actual Bioactivity: p(MIC) used in Staphylococcus aureus QSAR model
in vitro [5] = settings: monkey, microsomes, pH 7.4
in vitro [6] = settings: mouse, microsomes, pH 7.4
in vitro [7] = settings: dog, microsomes, pH 7.4
in vitro [8] = settings: rat, microsomes, pH 7.4
in vitro [9] = settings: human, microsomes, pH 7.4

SMILES	MIC Mycobacterium ranae ([1]; ATCC 110)	Minimum Inhibitory Concentration Mycobacterium ranae ([1]; ATCC 110)	MIC Salmonella typhimurium ([2]; ATCC 13311)	MIC Bacillus Subtillis ([3]; ATCC 43223)	MIC Staphylococcus aureus ME/GM/TC resistant [4]	Minimum Inhibitory Concentration Staphylococcus aureus ME/GM/TC resistant [4]	% hemolysis 100/25 μM (first value) (red blood cells)	% hemolysis 100/25 μM (second value) (red blood cells)	remaining at 0.25 h, 1 μM (in vitro [5])	remaining at 0.5 h, 1 μM (in vitro [5])	remaining at 1 h, 1 μM (in vitro [5])	remaining at 0.25 h, 1 μM (in vitro [6])	remaining at 0.5 h, 1 μM (in vitro [6])	remaining at 1 h, 1 μM (in vitro [6])	remaining at 0.5 h, 1 μM (in vitro [7])	remaining at 1 h, 1 μM (in vitro [7])	remaining at 0.25 h, 1 μM (in vitro [8])	Actual Bioactivity [1]	p(MIC) Staphylococcus aureus ME/GM/TC resistant [4]	Actual Bioactivity [4]	further results
CC(=O)N[C@@H](Cc1ccccc1)C(=O)N1Cc2ccccc2CC1C(=O)N1C(C(=O)N[C@@H](CCCCN)C(=O)N2Cc3ccccc3CC2C(=O)N2C(C(=O)N[C@@H](Cc3ccccc3)C(=O)N3Cc4ccccc4CC3C(=O)N3C(C(=O)N[C@@H](CCCCN)C(=O)N4Cc5ccccc5CC4C(=O)N[C@@H](CCCCN)C(=O)N[C@@H](CCCCN)C(=O)N[C@@H](CCCCN)C(=O)N[C@@H](CCCCN)C(N)=O)CC4CCCCC43)CC3CCCCC32)CC2CCCCC21 (stereo partly drawn) [FKAB-1Gc, Ac-F-Tic-Oic-K-Tic-Oic-F-Tic-Oic-K-Tic-KKKK-CONH2] (Ac-F[ξTic][ξOic]K[ξTic][ξOic]F[ξTic][ξOic]K[ξTic]KKKK-NH2)	30.00 µM (≈ 66.4 µg/mL)	30 µM	10 µM (≈ 22.1 µg/mL)	1.00 µM (≈ 2.21 µg/mL)	3.00 µM (≈ 6.64 µg/mL)	3 µM	86.8%/	50%	17%	24%	75%	86%	10%	7%	14%	46%	73%				remaining at 0.5 h, 1 μM (in vitro [8]): 80%; remaining at 1 h, 1 μM (in vitro [8]): 107%
CC(=O)NCCCCCC(=O)N[C@@H](Cc1ccccc1)C(=O)N1Cc2ccccc2C[C@H]1C(=O)N1[C@H](C(=O)NCCCCCC(=O)N[C@@H](CCCCN)C(=O)N2Cc3ccccc3C[C@H]2C(=O)N2[C@H](C(=O)NCCCCCC(=O)N[C@@H](Cc3ccccc3)C(=O)N3Cc4ccccc4C[C@H]3C(=O)N3[C@H](C(=O)NCCCCCC(=O)N[C@@H](CCCCN)C(=O)N4Cc5ccccc5C[C@H]4C(=O)N[C@@H](CCCCN)C(=O)N[C@@H](CCCCN)C(=O)N[C@@H](CCCCN)C(=O)N[C@@H](CCCCN)C(N)=O)C[C@@H]4CCCC[C@@H]43)C[C@@H]3CCCC[C@@H]32)C[C@@H]2CCCC[C@@H]21 [FKAB-1Gd2, Ac-Ahx-F-Tic-Oic-Ahx-K-Tic-Oic-Ahx-F-Tic-Oic-Ahx-K-Tic-KKKK-CONH2] (Ac-[Ahx]F[Tic][Oic][Ahx]K[Tic][Oic][Ahx]F[Tic][Oic][Ahx]K[Tic]KKKK-NH2)	3.00 µM (≈ 8 µg/mL)	3 µM	10 µM (≈ 26.7 µg/mL)	1.00 µM (≈ 2.67 µg/mL)	10.00 µM (≈ 26.7 µg/mL)	10 µM	44.7%/	26.6%										5.520	5.00	5.000	p(MIC) Salmonella typhimurium [2]: 5.00; p(MIC) Bacillus Subtillis [3]: 6.00
CC(C)NCC(O)COc1cccc2ccccc12 (centres unmarked) [Propranolol, propranolol, reference compound]									34%	9%	0.5%	9%	9%	4%	51%	24%	0.1%				remaining at 0.25 h, 1 μM (in vitro [9]): 97%; remaining at 0.5 h, 1 μM (in vitro [9]): 86%; remaining at 1 h, 1 μM (in vitro [9]): 72%; remaining at 0.25 h, 1 μM (in vitro [7]): 76%; remaining at 0.5 h, 1 μM (in vitro [8]): 0.1%; remaining at 1 h, 1 μM (in vitro [8]): 0.1%
CC(=O)NCC(=O)N[C@@H](Cc1ccccc1)C(=O)N1Cc2ccccc2C[C@H]1C(=O)N1[C@H](C(=O)NCC(=O)N[C@@H](CCCCN)C(=O)N2Cc3ccccc3C[C@H]2C(=O)N2[C@H](C(=O)NCC(=O)N[C@@H](Cc3ccccc3)C(=O)N3Cc4ccccc4C[C@H]3C(=O)N3[C@H](C(=O)NCC(=O)N[C@@H](CCCCN)C(=O)N4Cc5ccccc5C[C@H]4C(=O)N[C@@H](CCCCN)C(=O)N[C@@H](CCCCN)C(=O)N[C@@H](CCCCN)C(=O)N[C@@H](CCCCN)C(=O)NCCN)C[C@@H]4CCCC[C@@H]43)C[C@@H]3CCCC[C@@H]32)C[C@@H]2CCCC[C@@H]21 [FKAB-1H, Ac-GF-Tic-Oic-GK-Tic-Oic-GF-Tic-Oic-GK-Tic-KKKK-CONH—CH2—CH2—NH2] (Ac-GF[Tic][Oic]GK[Tic][Oic]GF[Tic][Oic]GK[Tic]KKKK-Ethylenediamine)	10.00 µM (≈ 24.8 µg/mL)	10 µM	10 µM (≈ 24.8 µg/mL)	1.00 µM (≈ 2.48 µg/mL)	3.00 µM (≈ 7.45 µg/mL)	3 µM			0%	0%	0%	0%	62%	73%				5.000	5.52	5.520	p(MIC) Salmonella typhimurium [2]: 5.00; remaining at 0.25 h, 1 μM (in vitro [9]): 34%; p(MIC) Bacillus Subtillis [3]: 6.00
CC(=O)NCCCC(=O)N[C@@H](Cc1ccccc1)C(=O)N1Cc2ccccc2C[C@H]1C(=O)N1[C@H](C(=O)NCCCC(=O)N[C@@H](CCCCN)C(=O)N2Cc3ccccc3C[C@H]2C(=O)N2[C@H](C(=O)NCCCC(=O)N[C@@H](Cc3ccccc3)C(=O)N3Cc4ccccc4C[C@H]3C(=O)N3[C@H](C(=O)NCCCC(=O)N[C@@H](CCCCN)C(=O)N4Cc5ccccc5C[C@H]4C(=O)N[C@@H](CCCCN)C(=O)N[C@@H](CCCCN)C(=O)N[C@@H](CCCCN)C(=O)N[C@@H](CCCCN)C(=O)N[C@@H](CCCCN)C(N)=O)C[C@@H]4CCCC[C@@H]43)C[C@@H]3CCCC[C@@H]32)C[C@@H]2CCCC[C@@H]21 [FKAB-1Gd3, Ac-Gaba-F-Tic-Oic-Gaba-K-Tic-Oic-Gaba-F-Tic-Oic-Gaba-K-Tic-KKKKK-CONH2] (Ac-[GABA]F[Tic][Oic][GABA]K[Tic][Oic][GABA]F[Tic][Oic][GABA]K[Tic]KKKKK-NH2)	3.00 µM (≈ 8.04 µg/mL)		10 µM (≈ 26.8 µg/mL)	1.00 µM (≈ 2.68 µg/mL)			29.7%/	10.5%										5.520	4.52	4.520	Minimum Inhibitory Concentration Mycobacterium ranae [1]: 3 µM; selectivity for Mycobacterium ranae over Salmonella typhimurium ([1]; in vitro): 3 fold; Minimum Inhibitory Concentration Salmonella typhimurium ([2]; ATCC 13311): 10 µM; Minimum Inhibitory Concentration Bacillus subtillis ([3]; ATCC 43223): 1 µM
